Literature values, collected in US11499155B2, “Dynamin 2 inhibitor for the treatment of centronuclear myopathies” (UNIVERSITE DE STRASBOURG, priority 2013, dated 2022).

Legend:
mitochondrial division = conditions: read-out: IC50 (mitochondrial division inhibitor)
[1] = biological target: receptor-mediated and synaptic vesicle endocytosis; conditions: read-out: IC50 for inhibition of receptor-mediated and synaptic vesicle endocytosis

Structure (SMILES) | IC50 (Dynamin) | further results
COc1cc(-n2c(S)nc3ccccc3c2=O)c(Cl)cc1Cl [M-divi 1, 3-(2,4-Dichloro-5-methoxyphenyl)-2-sulfanylquinazolin-4(3H)-one] |  | IC50 (mitochondrial division): 10000 nM
CCCCCCCCCCCCCC[N+](C)(C)C [MiTMAB, Tetradecyltrimethylammonium bromide] |  | IC50 [1]: 2200 nM
CCCCCCCCCCCCCCCCCC[N+](C)(C)CCN1C(=O)C2C3CCC(O3)C2C1=O (stereo not shown) [RTIL-13, 4-(N,N-Dimethyl-N-octadecyl-N-ethyl)-4-aza-10-oxatricyclo-[5.2.1]decane-3,5-dione bromide] | 2300 nM | 
O=C(NN=Cc1cc(O)c(O)cc1O)c1cc2ccccc2cc1O [Hydroxy-Dynasore, 3-Hydroxy-N′-[(2,4,5-trihydroxyphenyl)methylidene]naphthalene-2-carbohydrazide] | 2500 nM | 
